{"source": "paper PMC12049818", "about": "“Identification of NUV-244 as a PNPLA3 I148M degrading small molecule” (iScience, 2025)", "key": {"[1]": {"target": "T1, PNPLA3 I148M (Homo sapiens, UniProt Q9NST1, I148M)", "T1 sequence (Q9NST1 1-481 I148M)": "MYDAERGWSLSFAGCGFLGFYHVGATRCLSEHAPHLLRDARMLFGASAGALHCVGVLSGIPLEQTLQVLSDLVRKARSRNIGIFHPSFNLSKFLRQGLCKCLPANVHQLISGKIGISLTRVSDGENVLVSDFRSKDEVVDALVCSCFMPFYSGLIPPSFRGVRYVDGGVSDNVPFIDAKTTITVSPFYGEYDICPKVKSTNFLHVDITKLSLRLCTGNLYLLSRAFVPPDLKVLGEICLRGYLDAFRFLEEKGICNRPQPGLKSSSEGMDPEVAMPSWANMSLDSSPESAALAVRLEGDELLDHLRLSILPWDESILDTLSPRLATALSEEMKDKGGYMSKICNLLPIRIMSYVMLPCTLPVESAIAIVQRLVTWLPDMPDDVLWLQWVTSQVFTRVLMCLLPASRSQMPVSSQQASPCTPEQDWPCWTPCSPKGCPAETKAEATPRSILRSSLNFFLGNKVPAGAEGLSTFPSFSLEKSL", "assay": "Huh7 untagged PNPLA3 I148M immunofluorescence on lipid droplets", "assay_type": "cell-based", "design": "host or cells: Huh7", "conditions": "anti-PNPLA3 IF; representative curve, Figure 3E", "experimental": "Even though C-terminal tagging is reported not to interfere with PNPLA3 localization,[20] we established an assay to exclude the possibility that C-terminal tagging of PNPLA3 with tagRFP could alter PNPLA3 response to NUV-244 on lipid droplets. For this we generated Huh7 cell lines that express untagged variants of PNPLA3 I148M or PNPLA3 WT and visualized PNPLA3 on lipid droplets by immunofluorescence (Figures 3C, 3D, and S3A).\nCells were fixed with 4% paraformaldehyde for 15 minutes at room temperature. Cells were blocked with 0.2 M glycine, 0.1 mg/mL saponin, and 30 mg/mL bovine serum albumin (BSA) (all Sigma Aldrich) in PBS for 1 hour. Cells were washed 1x with washing buffer (0,1 mg/ml saponin + 1 mg/ml Bovine serum albumin) using a Blue Washer (Blue Cat Bio). Mouse anti-human ADPN (PNPLA3, C-8, #sc-390252, Santa Cruz) and rabbit anti-human PNPLA2 (Sigma Aldrich, #HPA055173-25UL) primary antibodies and appropriate secondary antibodies conjugated with Alexa-Fluor 647 (Jackson ImmunoResearch) were used. […]\nImages were acquired by an Opera Phenix confocal spinning disc microscope system (Revvity, Waltham, MA, USA) with a 20x or 40x water objective at 405 nm (Hoechst), 488 nm (BODIPY) and 647 nm. Quantification was carried out with the Harmony (Revvity, Waltham, MA, USA) or MetaXpress software (Molecular Devices). […]"}, "[2]": {"target": "T1, PNPLA3 I148M", "assay": "nanoDSF thermal shift, PNPLA3 I148M protein", "assay_type": "binding", "conditions": "ligand 25 μM", "excerpt": "To investigate the mode of action of NUV-244, we evaluated its direct binding to the PNPLA3 I148M protein using nano differential scanning fluorimetry (nanoDSF). In this assay, compounds that bind to a target protein can lead to thermal stabilization, preventing protein denaturation, which is reflected in a shift of the protein melting curve.\nFull-length wild-type PNPLA3 (Q9NST1), mutant PNPLA3 (I148M), and PNPLA2 (Q96AD5) were cloned into the pVL1393 vector with an N-terminal Flag-Tag. Proteins were expressed in SF9 cells infected at a multiplicity of infection (MOI) of 1 for 72 hours. Protein purification was performed using a two-step process. The first step involved affinity purification using M2 anti-Flag agarose beads. This was followed by gel filtration chromatography using a Superdex 200 column. Thermal melting experiments were carried out using a Prometheus NT.48 instrument (NanoTemper Technologies). Proteins were prepared in 20 mM Tris-HCl pH 7.4, 100 mM NaCl, 5 % Glycerol, 2 mM DTT and 0.2 mg/mL was used as a final concentration in 50 μL volume. For binding experiments, ligands were added to the mixture at a final concentration of 25 μM, DMSO was used as control. […] The intrinsic protein fluorescence at 330 and 350 nm was recorded. Data were analysed using Prometheus NT.48 software. Thermal shifts (ΔTm) were calculated, and Z-scores greater than 6 indicated robust stabilization. […]"}}, "data": [{"smiles": "Cc1cccc(Cc2nc(C)c(C(=O)Nc3cc(O)ccc3Cl)s2)c1", "note": "[NUV-244]", "values": [{"measurement": "EC50", "setting": "[1]", "value": 0.153, "unit": "µM"}, {"measurement": "ΔTm PNPLA3 I148M", "setting": "[2]", "value": 5.82, "unit": "°C"}]}]}
